Here are results for three molecules from patent EP1484329A1, “Indole derivatives with apoptosis inducing activity” (Zentaris GmbH, priority 2003, dated 2004).

The subject of one experiment is A431. Kind of experiment: XTT proliferation assay, A431. It is filed as cell-based, human. The settings on record: Homo sapiens, read-out: XTT Proliferationsassay, EC50 A431. The source says: (§1) Die Substanzen 1,2, 4-6 wurden in einem Proliferationstest an etablierten Tumorzelllinien auf ihre anti-proliferative Aktivität hin untersucht (D.A. Scuderio et al. Cancer Res. 1988, 48, 4827-4833). Der verwendete Test bestimmt die zelluläre Dehydrogenase-Aktivität und ermöglicht eine Bestimmung der Zellvitalität und indirekt der Zellzahl. Bei den verwendeten Zelllinien handelt es sich um die humane Cervixkarzinom Zelllinie KB/HeLa (ATCC CCL17), die ovariale Adenokarzinomzelllinie SKOV-3 (ATCC HTB77), die humane Glioblastom Zelllinie SF-268 (NCI 503138) und die Lungenkarzinom Zelllinie NCI-H460 (NCI 503473). Des weiteren wurde zur Untersuchung der Zellzyklus-spezifischen Wirkung der Substanz ein RKOp27 Zellsystem verwendet (M. Schmidt et al. Oncogene19(20):2423-9, 2000). Bei RKO handelt es sich um eine humane Kolonkarzinomlinie, in der der Zellzyklusinhibitor p27 ^kip1 mittels des Ecdyson Expressionssystems induziert zur Expression gebracht und zu einem Zellzyklusarrest spezifisch in G2 geführt werden kann. Eine unspezifisch wirkende Substanz hemmt die Proliferation unabhängig davon, ob die RKO Zelle in G1 oder G2 arretiert ist oder nicht. Zellzyklus-spezifische Substanzen wie beispielsweise Tubulininhibitoren sind hingegen nur dann zytotoxisch, wenn Zellen nicht arretiert sind und der Zellzyklus durchlaufen wird. In Tabelle 1 ist die zytotoxische bzw. wachstumshemmende Aktivität der beschriebenen Verbindungen mit / ohne Expression von p27^kip1gezeigt. Die getesteten Verbindungen zeigten im induzierten Zustand von p27^kiP1 keine zytotoxische Aktivität. Die Ergebnisse zeigen eine sehr potente Hemmung der Proliferation ausgewählter Tumorzelllinien durch die genannten Substanzen. Tabelle 1:
(§2) Zur weiteren Charakterisierung wurden die Substanzen 1-6 an einem Panel von 7 humanen Tumorzelllinien auf ihre anti-proliferative Wirkung hin untersucht. Bei den untersuchten Zelllinien handelt es sich um die humanen Glioma Zelllinien A172 (ATCC CRL-1620) und U118 (ATCC HTB-15), die humane Lungenkarzinom Zelllinie A549, das humane epidermoide Karzinom A431 (ATCC CRL-2592), die humanen Prostatakarzinom Zelllinien DU145 (ATCC HTB-81) und PC3 (ATCC CRL-1435) und die humane Kolon Adenokarzinomzelllinie HT29 (ATCC HTB-38). Es handelt sich hierbei um sehr gut charakterisierte, etablierte Zelllinien, die von ATCC, ECACC bzw. NCI erhalten und in Kultur genommen wurden. Die in Tab. […]
A general note: Formazan colour is commonly taken as a measure of viable cells.

Another experiment relates to RKOp27. Kind of experiment: XTT proliferation assay, RKOp27 cell system with / without induced p27kip1 expression. The class given is cell-based. The settings on record: Homo sapiens.
From the text: as §1, with “Substanzen.” for “Substanzen. Tabelle 1:”

In another experiment the test system is DU145. Kind of experiment: XTT proliferation assay, DU145. It is filed as cell-based, human. Particulars: Homo sapiens, read-out: XTT Proliferationsassay, EC50 DU145.
From the text: as §1, §2

A further experiment concerns A172. Kind of experiment: XTT proliferation assay, A172. It is filed as cell-based, human. Particulars: Homo sapiens, read-out: XTT Proliferationsassay, EC50 A172.
From the text: as §1, §2

A further experiment deals with A549. The experiment in a line: XTT proliferation assay, A549. The class given is cell-based, human. The settings on record: Homo sapiens, read-out: XTT Proliferationsassay, EC50 A549.
From the text: as §1, §2

A further experiment concerns PC3. Kind of experiment: XTT proliferation assay, PC3. The class given is cell-based, human. Particulars: Homo sapiens, read-out: XTT Proliferationsassay, EC50 PC3.
From the text: as §1, §2

The subject of a further experiment is P388ADR. Kind of experiment: XTT proliferation assay, P388ADR (doxorubicin-resistant). The class given is cell-based, murine.
From the text: as §1
Zur weiteren Charakterisierung wurden die Substanzen 1,2,4-6 gegenüber multi drug resistenten Zelllinien im Vergleich zu den nicht-resistenten Wildtypzelllinien untersucht.
Bei den untersuchten Zelllinien handelt es sich um die murine L1210, die akute myeloische Leukaemie Zelllinie LT12 und um die resistenten Linien L1210/mdr und LT12/mdr. Außerdem wurden die murine P388 Zelllinie (methyl-cholanthreneinduced lymphoid neoplasm) sowie die Doxorubicin-resistente P388 als Testsysteme herangezogen.

For a further experiment, the system named is HT29. The experiment in a line: XTT proliferation assay, HT29. It is filed as cell-based, human. Particulars: Homo sapiens, read-out: XTT Proliferationsassay, EC50 HT29.
From the text: as §1, §2

[1] abbreviates: RKOP27, without expression of p27kip1, read-out: XTT Proliferationsassay, EC50 RKOP27.
The mark [2] stands for this setting: RKOP27 ind., p27kip1 expression induced (cells arrested), read-out: XTT Proliferationsassay, EC50 RKOP27 ind.
Where [3] appears, read: Mus musculus, P388/ADR; read-out: XTT Proliferationsassay, EC50 P388ADR.

In brackets after ≈: the same amount, converted by molar mass. Read-outs that look alike come from different tables or passages of the source.

As for `O=C(Nc1ccc2ncccc2c1)C(=S)c1cn(Cc2ccc(Cl)cc2)c2ccccc12` [Verbindung 4, 2-[1-(4-Chlorbenzyl)-1 H-indol-3-yl]-N-chinolin-6-yl-2-thioxoacetamid], the EC50 with A431 (A-431, A431) was 0.016 µg/mL (≈ 0.0351 µM); in the experiment with RKOp27 (setting [1]), 0.053 µg/mL (≈ 0.116 µM); in the experiment on RKOp27 (setting [2]), over 3.16 µg/mL; in the experiment on DU145 (DU-145, DU145) it was 0.045 µg/mL (≈ 0.0987 µM); in the experiment on A172 (A 172, A172) it was 0.043 µg/mL (≈ 0.0943 µM); in the experiment on A549 (A549, A549), 0.041 µg/mL (≈ 0.0899 µM). In addition, the EC50 is 0.027 µg/mL (≈ 0.0592 µM) in the experiment on PC3 (PC-3, PC3); 0.051 µg/mL (≈ 0.112 µM) with P388ADR (setting [3]); 0.04 µg/mL (≈ 0.0877 µM) in the experiment with HT29 (HT-29, HT29).
Consider `O=C(Nc1ccc2ncccc2c1)C(=O)c1cn(Cc2ccc(Cl)cc2)c2ccccc12` [Verbindung 2, 2-[1-(4-Chlor-benzyl)-1 H-indol-3-yl]-2-oxo-N-chinolin-6-yl-acetamid], for which the EC50 in the experiment on A431 (A-431) was 0.014 µg/mL (≈ 0.0318 µM); in the experiment on RKOp27 (setting [1]), 0.047 µg/mL (≈ 0.107 µM); in the experiment with RKOp27 (setting [2]), over 3.16 µg/mL; in the experiment on DU145 (DU-145) it was 0.047 µg/mL (≈ 0.107 µM); with A172 (A 172) it was 0.024 µg/mL (≈ 0.0546 µM); in the experiment with A549 (A549) it was 0.05 µg/mL (≈ 0.114 µM). Moreover, the EC50 is 0.016 µg/mL (≈ 0.0364 µM) in the experiment with PC3 (PC-3); 0.056 µg/mL (≈ 0.127 µM) in the experiment with P388ADR (Mus musculus, P388/ADR, read-out: XTT Proliferationsassay, EC50 P388ADR); 0.027 µg/mL (≈ 0.0614 µM) with HT29 (HT-29).
With `O=C(Nc1cnc2nccnc2c1)C(=O)c1cn(Cc2ccc(Cl)cc2)c2ccccc12` [Verbindung 5, 2-[1-(4-Chlor-benzyl)-1H-indol-3-yl]-2-oxo-N-pyrido[2,3-b]pyrazin-7-yl-acetamid], the EC50 with A431 (A-431, A431) is 0.011 µg/mL (≈ 0.0249 µM); in the experiment with RKOp27 (setting [1]), 0.065 µg/mL (≈ 0.147 µM); with RKOp27 (setting [2]), over 3.16 µg/mL; in the experiment on DU145 (DU-145, DU145) it was 0.035 µg/mL (≈ 0.0792 µM); with A172 (A 172, A172), 0.019 µg/mL (≈ 0.043 µM); with A549 (A549, A549) it was 0.017 µg/mL (≈ 0.0385 µM). Also, the EC50 is 0.03 µg/mL (≈ 0.0679 µM) in the experiment with PC3 (PC-3, PC3); 0.019 µg/mL (≈ 0.043 µM) in the experiment on P388ADR (setting [3]); 0.07 µg/mL (≈ 0.158 µM) in the experiment on HT29 (HT-29, HT29).
